Laboratory results reported in patent US8383637B2, “2-amino-quinazoline derivatives useful as inhibitors of β-secretase (BACE)” (Jansssen Pharmaceutica N.V., priority 2004, dated 2013).
Several values for one entry are separate records, joined by “and”; a condition that tells them apart may be missing. Identical values can stand only once.

How the values were obtained:
[1] = molecular target: T1, β-secretase(BACE) (Homo sapiens, UniProt P56817); assay: BACE Assay-2 (FS1 substrate, IC50 and Ki); assay type: biochemical; details: procedure of Example 159, FS1 substrate; read-out: Ki μM (159)
T1 construct: purchased Panvera
Experimental: The FS1-substrate stock solution was prepared in DMSO as a 10 mg/mL solution. The FS1-substrate working solution was prepared by diluting the 10 mg/mL stock solution with substrate assay buffer to a final concentration of 300 μg/mL. The β-secretase (BACE) working solution was prepared by diluting a 0.83 mg/mL BACE stock solution with enzyme assay buffer to a final concentration of 4 μg/mL.
Test compounds were dissolved in DMSO at 10 mM.
The procedure for this assay was as follows: 15 μL of BACE working solution was pipetted into each well of a 96-well plate. To each well was then pipetted 2 μL of test compound at the selected concentration. Test compound and BACE were then mixed with a pipettor and incubated for 20 min at room temperature. To each well was then added 10 μL of the FS1 substrate working solution.
The procedure for the positive control was as follows: 15 μL of BACE working solution was pipetted into each well to be used as a positive control. To each well was then pipetted 2 μL of vehicle. Vehicle and BACE were then mixed with a pipettor and incubated for 20 min at room temperature. To each well was then added 10 μL of the FS1 substrate working solution.
For test compounds, measured at multiple concentrations, the measured T0 and T60 values were used to calculate an IC50 value using Graphpad Software (or PIR). For test compounds, Ki inhibition was determined as follows: For each compound concentration and positive control, rate of cleavage of substrate (Vi, where i=compound concentration in μM) was determined as Δ Fluorescence/Δ time (min). Cleavage rates (Vi) were plotted as a function of inhibitor concentration in μM [I]. The Ki was then determined by fitting the following equation to the graph of [I] vs Vi Y=aVmax/(50+24*(1+X/Ki)),

[2] = molecular target: T1, β-secretase(BACE); assay: BACE FS1% Inhibition Assay; assay type: biochemical; details: FS1 substrate; for inhibition at 0.3 µM: read-out: % Inhibition (FS) 0.3 μM; for inhibition at 1 µM: read-out: % Inhibition (FS) 1 μM; for inhibition at 3 µM: read-out: % Inhibition (FS) 3 μM; for inhibition at 10 µM: 10 μM test compound, read-out: % Inhibition (FS) 10 μM
Outline: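 Human BACE (4 μg/mL working solution) preincubated 20 min at room temperature with compound, then FS1 substrate (300 μg/mL working solution) added and incubated 1 h at room temperature. Percent inhibition calculated at each compound concentration against blank and vehicle controls.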

T1 sequence (P56817 46-501): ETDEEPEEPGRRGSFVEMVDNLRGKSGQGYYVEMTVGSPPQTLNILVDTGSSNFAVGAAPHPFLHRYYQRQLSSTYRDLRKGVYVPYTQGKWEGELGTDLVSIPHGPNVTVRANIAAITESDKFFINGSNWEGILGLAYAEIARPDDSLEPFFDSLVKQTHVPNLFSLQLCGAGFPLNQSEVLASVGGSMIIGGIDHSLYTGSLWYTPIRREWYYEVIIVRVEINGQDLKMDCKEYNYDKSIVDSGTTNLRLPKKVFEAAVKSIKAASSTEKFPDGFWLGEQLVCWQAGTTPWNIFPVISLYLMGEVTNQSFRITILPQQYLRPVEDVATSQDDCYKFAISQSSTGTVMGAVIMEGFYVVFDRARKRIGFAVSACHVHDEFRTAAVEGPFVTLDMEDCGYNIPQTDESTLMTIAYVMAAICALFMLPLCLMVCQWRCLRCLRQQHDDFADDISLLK

Row | Structure (SMILES) | Ki [1] [µM] | inhibition at 0.3 µM ([2]; 0.3 μM test compound) [%] | inhibition at 1 µM ([2]; 1 μM test compound) [%] | inhibition at 3 µM ([2]; 3 μM test compound) [%] | inhibition at 10 µM [2] [%] | % Inhibition (FS) 0.3 μM ([2]; 0.3 μM test compound) [%] | % Inhibition (FS) 1 μM ([2]; 1 μM test compound, 1 µM) | % Inhibition (FS) 3 μM ([2]; 3 μM test compound, 3 µM) [%]
1 | CCCCCC(CCC(=O)NC1CCCCC1)N1Cc2cc(Oc3ccccc3)ccc2N=C1N (stereo not drawn) [Compound 149] | 0.21 | 32 | 71 | 111 |  |  |  | 
2 | CN(C(=O)CCC(c1ccccc1)N1Cc2cc(Oc3ccccc3)ccc2N=C1N)C1CCCCC1 (stereo not drawn) [Compound 151] | 0.23 |  |  | 79 | 104 |  |  | 
3 | CN(C(=O)CCCC(c1ccccc1)N1Cc2cc(Oc3ccccc3)ccc2N=C1N)C1CCCCC1 (stereo not drawn) [Compound 152] | 0.3 |  |  | 85 | 107 |  |  | 
4 | CN(C(=O)c1cccc(CN2Cc3cc(-c4ccccc4S(=O)(=O)NC(C)(C)C)ccc3N=C2N)c1)C1CCCCC1 [Compound 158] | 0.81 | < 30 |  | 60 |  | <30 | <30% and 53% | 79
5 | CN(C(=O)c1cccc(CN2Cc3cc(-c4cccnc4)ccc3N=C2N)c1)C1CCCCC1 [Compound 170] | 0.77 | < 30 | 49 | 67 |  |  |  | 
6 | CN(C(=O)c1cccc(CN2Cc3cc(-c4ccccc4C(N)=O)ccc3N=C2N)c1)C1CCCCC1 [Compound 173] | 0.47 | < 30 | 53 | 76 |  |  |  | 
7 | Cc1cccc(-c2ccc3c(c2)CN(Cc2cccc(C(=O)N(C)C4CCCCC4)c2)C(N)=N3)c1 [Compound 176] | 0.2 | 66 | 97 | 111 |  |  |  | 
8 | CN(C(=O)CCCN1Cc2cc(Oc3ccccc3)ccc2N=C1N)C1CCCCC1 [Compound 177] | 0.56 | < 30 | 80 | 102 |  |  |  | 
9 | CC(C)N(C(=O)CCN1Cc2cc(Oc3ccccc3)ccc2N=C1N)C1CCCCC1 [Compound 179] | 1.04 | < 30 | 54 | 85 |  |  |  | 
10 | CC(C)N(C(=O)c1cccc(CN2Cc3cc(Oc4ccccc4)ccc3N=C2N)c1)C1CCCCC1 [Compound 192] | 0.22 | 38 | 92 | 110 |  |  |  | 
11 | CC(C)C(CC(=O)N(C)C1CCCCC1)N1Cc2cc(Oc3ccccc3)ccc2N=C1N (stereo not drawn) [Compound 201] | 0.4 | < 30 | < 30 | 66 |  |  |  | 
12 | NC1=Nc2ccc(Oc3ccccc3)cc2CN1CCNC(=O)Nc1ccccc1 [Compound 205] | 0.32 | < 30 | 47 | 90 |  |  |  | 
13 | Cc1cccc(Oc2ccc3c(c2)CN(Cc2cccc(C(=O)N(C)C4CCCCC4)c2)C(N)=N3)c1 [Compound 209] | 0.29 | < 30 | 58 | 103 |  |  |  | 
14 | CC(C)CN(CC(C)C)C(=O)c1cccc(CN2Cc3cc(Oc4ccccc4)ccc3N=C2N)c1 [Compound 211] | 0.69 | < 30 | < 30 | 68 |  |  |  | 
15 | COc1ccccc1C(=O)NCCN1Cc2cc(Oc3ccccc3)ccc2N=C1N [Compound 216] | 0.52 | < 30 | 45 | 91 |  |  |  | 
16 | CN(C(=O)c1cccc(CN2Cc3cc(Oc4cccc(-c5ccccc5)c4)ccc3N=C2N)c1)C1CCCCC1 [Compound 231] | 3.8 | < 30 | 71 | 75 |  |  |  | 
17 | Cc1ccccc1-c1ccc2c(c1)CN(Cc1cccc(C(=O)N(C)C3CCCCC3)c1)C(N)=N2 [Compound 261] | 0.42 | 51 | 87 | 110 |  |  |  | 
18 | Cc1cccc(C)c1-c1ccc2c(c1)CN(Cc1cccc(C(=O)N(C)C3CCCCC3)c1)C(N)=N2 [Compound 262] | 0.66 | 39 | 63 | 95 |  |  |  | 
19 | CN(C(=O)c1cccc(CN2Cc3cc(-c4ccccc4C#N)ccc3N=C2N)c1)C1CCCCC1 [Compound 263] | 0.77 | 20 | 60 | 92 |  |  |  | 
20 | COc1cccc(OC)c1-c1ccc2c(c1)CN(Cc1cccc(C(=O)N(C)C3CCCCC3)c1)C(N)=N2 [Compound 264] | 0.78 | 26 | 63 | 92 |  |  |  | 
21 | CN(C(=O)c1cccc(CN2Cc3cc(-c4csc5ccccc45)ccc3N=C2N)c1)C1CCCCC1 [Compound 265] | 1.1 | < 30 | 55 | 92 |  |  |  | 
22 | CN(C(=O)c1cccc(CN2Cc3cc(-c4ccccc4C(F)(F)F)ccc3N=C2N)c1)C1CCCCC1 [Compound 268] | 0.65 | < 30 | < 30 | 71 |  |  |  | 
23 | COc1cccc(Oc2ccc3c(c2)CN(Cc2cccc(C(=O)N(C)C4CCCCC4)c2)C(N)=N3)c1 [Compound 292] | 1 | < 30 | 49 | 83 |  |  |  | 
24 | Cc1ccccc1Oc1ccc2c(c1)CN(Cc1cccc(C(=O)N(C)C3CCCCC3)c1)C(N)=N2 [Compound 293] | 1.1 | < 30 | 44 | 81 |  |  |  | 
25 | NC1=Nc2ccc(Oc3ccccc3)cc2CN1C(CNC(=O)C(c1ccccc1)c1ccccc1)C1CCCCC1 (stereo not drawn) [Compound 304] | 0.56 | < 30 | 46 | 100 |  |  |  | 
26 | CN(C(=O)c1cccc(CN2Cc3cc(-c4ccccc4OC(F)(F)F)ccc3N=C2N)c1)C1CCCCC1 [Compound 324] | 0.52 | < 30 | 55 | 87 |  |  |  | 
27 | CC(=O)Nc1ccccc1-c1ccc2c(c1)CN(Cc1cccc(C(=O)N(C)C3CCCCC3)c1)C(N)=N2 [Compound 328] | 0.33 | < 30 | 61 | 92 |  |  |  | 
28 | CN(C(=O)c1cccc(CN2Cc3cc(-c4ccccc4[N+](=O)[O-])ccc3N=C2N)c1)C1CCCCC1 [Compound 333] | 0.49 | < 30 | < 30 | 78 |  |  |  | 
29 | CN(C(=O)c1cccc(CN2Cc3cc(-c4ccccc4F)ccc3N=C2N)c1)C1CCCCC1 [Compound 334] | 0.068 | 74 | 103 | 118 |  |  |  | 
30 | Cc1ccccc1Sc1ccc2c(c1)CN(Cc1cccc(C(=O)N(C)C3CCCCC3)c1)C(N)=N2 [Compound 404] | 0.78 | < 30 | 32 | 67 |  |  |  | 
